# From patent US20160113265A1, “[…] AND METHODS THEREOF” (Lanodir USA, Inc., priority 2014, published 2016)
# Like-named read-outs stand apart in the source and are kept apart here.
# Assays:
# Tribolium castaneum = settings: exposed for 24 Hours at 26.7° C. (80° F.), cited from earlier work
# Carpophilus hemipterus = settings: exposed for 24 Hours at 26.7° C. (80° F.), cited from earlier work
# Tribolium confusum = settings: exposed for 24 Hours at 26.7° C. (80° F.), cited from earlier work
# Lasioderma serricorne = settings: exposed for 24 Hours at 26.7° C. (80° F.), cited from earlier work
# Orzaephilus surinamensis = settings: exposed for 24 Hours at 26.7° C. (80° F.), cited from earlier work
# live pests = assay: Condition of fumigated barge cargo on arrival at destination port (residues, live pests); assay type: in vivo; settings: approximately two weeks later
# Procedure: A fumigation apparatus, such as the fumigation apparatus 10 (FIGS. 1A-1C), was provided in a barge hatch at a source shipping port that was subsequently loaded with 2,700 metric tons of corn kernels (cargo). A dose of 2,600 g PH3 was injected (approximately […]) without the use of a turbine (e.g., fan). A PH3 sensor was then used to measure the air quality immediately above the surface of the cargo and the gas concentration the approximately 1 meter below the surface of the cargo (using a probe) at predetermined time intervals.
# On the same day as Experiment 1, a fumigation apparatus, such as the fumigation apparatus 10 (FIGS. 1A-1C), was provided in a barge hatch at the source shipping port that was subsequently loaded with 2,700 metric tons of corn kernels (cargo). A dose of 2,200 g PH3 was injected (approximately 0.814 g PH3/ton cargo) with a turbine (e.g., fan) to push the PH3. The PH3 sensor was then used to measure the air quality immediately above the surface of the cargo and the gas concentration the approximately 1 meter below the surface of the cargo (using a probe) at predetermined time intervals.
# The day following Experiment 1 and Experiment 2, a fumigation apparatus, such as the fumigation apparatus 10 (FIGS. 1A-1C), was provided in a barge hatch at the source shipping port that was subsequently loaded with 2,700 metric tons of corn kernels (cargo). A dose of 1,700 g PH3 was injected (approximately […]) without auxiliary turbine and only with the air flow of the phosphine mixture delivery equipment itself (e.g., approximately 200 m^3/hour). The PH3 sensor was then used to measure the air quality immediately above the surface of the cargo and the gas concentration the approximately 1 meter below the surface of the cargo (using a probe) at predetermined time intervals.
# The same day as Experiment 3, and eight days thereafter, nine barges were loaded and fumigated in a similar manner as in Experiment 3 to test repeatability.
# Plodia interpunctella = settings: exposed for 24 Hours at 26.7° C. (80° F.), cited from earlier work
# Amyelois transitella = settings: exposed for 24 Hours at 26.7° C. (80° F.), cited from earlier work
smiles,measurement,setting,value
"P [PH3, phosphine gas]",Percent (%) Mortality adults,Tribolium castaneum; 250 ppm PH3,100%
same,Percent (%) Mortality eggs,Tribolium castaneum; 250 ppm PH3,90-100%
same,Percent (%) Mortality larvae,Tribolium castaneum; 250 ppm PH3,100%
same,Percent (%) Mortality pupae,Tribolium castaneum; 250 ppm PH3,100%
same,Percent (%) Mortality adults,Tribolium castaneum; 500 ppm PH3,100%
same,Percent (%) Mortality eggs,Tribolium castaneum; 500 ppm PH3,100%
same,Percent (%) Mortality larvae,Tribolium castaneum; 500 ppm PH3,100%
same,Percent (%) Mortality pupae,Tribolium castaneum; 500 ppm PH3,100%
same,Percent (%) Mortality adults,Tribolium castaneum; 1000 ppm PH3,100%
same,Percent (%) Mortality eggs,Tribolium castaneum; 1000 ppm PH3,100%
same,Percent (%) Mortality larvae,Tribolium castaneum; 1000 ppm PH3,100%
same,Percent (%) Mortality pupae,Tribolium castaneum; 1000 ppm PH3,100%
same,Percent (%) Mortality adults,Carpophilus hemipterus; 250 ppm PH3,100%
same,Percent (%) Mortality eggs,Carpophilus hemipterus; 250 ppm PH3,100%
same,Percent (%) Mortality larvae,Carpophilus hemipterus; 250 ppm PH3,100%
same,Percent (%) Mortality pupae,Carpophilus hemipterus; 250 ppm PH3,100%
same,Percent (%) Mortality adults,Carpophilus hemipterus; 500 ppm PH3,100%
same,Percent (%) Mortality eggs,Carpophilus hemipterus; 500 ppm PH3,100%
same,Percent (%) Mortality larvae,Carpophilus hemipterus; 500 ppm PH3,100%
same,Percent (%) Mortality pupae,Carpophilus hemipterus; 500 ppm PH3,100%
same,Percent (%) Mortality adults,Carpophilus hemipterus; 1000 ppm PH3,100%
same,Percent (%) Mortality eggs,Carpophilus hemipterus; 1000 ppm PH3,100%
same,Percent (%) Mortality larvae,Carpophilus hemipterus; 1000 ppm PH3,100%
same,Percent (%) Mortality pupae,Carpophilus hemipterus; 1000 ppm PH3,100%
same,Percent (%) Mortality adults,Tribolium confusum; 250 ppm PH3,100%
same,Percent (%) Mortality eggs,Tribolium confusum; 250 ppm PH3,59-80%
same,Percent (%) Mortality larvae,Tribolium confusum; 250 ppm PH3,100%
same,Percent (%) Mortality pupae,Tribolium confusum; 250 ppm PH3,89-95%
same,Percent (%) Mortality adults,Tribolium confusum; 500 ppm PH3,100%
same,Percent (%) Mortality eggs,Tribolium confusum; 500 ppm PH3,83-100%
same,Percent (%) Mortality larvae,Tribolium confusum; 500 ppm PH3,100%
same,Percent (%) Mortality pupae,Tribolium confusum; 500 ppm PH3,89-98%
same,Percent (%) Mortality adults,Tribolium confusum; 1000 ppm PH3,100%
same,Percent (%) Mortality eggs,Tribolium confusum; 1000 ppm PH3,100%
same,Percent (%) Mortality larvae,Tribolium confusum; 1000 ppm PH3,100%
same,Percent (%) Mortality pupae,Tribolium confusum; 1000 ppm PH3,94-100%
same,Percent (%) Mortality adults,Lasioderma serricorne; 250 ppm PH3,100%
same,Percent (%) Mortality eggs,Lasioderma serricorne; 250 ppm PH3,87-94%
same,Percent (%) Mortality larvae,Lasioderma serricorne; 250 ppm PH3,100%
same,Percent (%) Mortality pupae,Lasioderma serricorne; 250 ppm PH3,100%
same,Percent (%) Mortality adults,Lasioderma serricorne; 500 ppm PH3,100%
same,Percent (%) Mortality eggs,Lasioderma serricorne; 500 ppm PH3,87-96%
same,Percent (%) Mortality larvae,Lasioderma serricorne; 500 ppm PH3,100%
same,Percent (%) Mortality pupae,Lasioderma serricorne; 500 ppm PH3,100%
same,Percent (%) Mortality adults,Lasioderma serricorne; 1000 ppm PH3,100%
same,Percent (%) Mortality eggs,Lasioderma serricorne; 1000 ppm PH3,96-100%
same,Percent (%) Mortality larvae,Lasioderma serricorne; 1000 ppm PH3,100%
same,Percent (%) Mortality pupae,Lasioderma serricorne; 1000 ppm PH3,100%
same,Percent (%) Mortality adults,Orzaephilus surinamensis; 250 ppm PH3,100%
same,Percent (%) Mortality eggs,Orzaephilus surinamensis; 250 ppm PH3,100%
same,Percent (%) Mortality larvae,Orzaephilus surinamensis; 250 ppm PH3,97-100%
same,Percent (%) Mortality pupae,Orzaephilus surinamensis; 250 ppm PH3,100%
same,Percent (%) Mortality adults,Orzaephilus surinamensis; 500 ppm PH3,100%
same,Percent (%) Mortality eggs,Orzaephilus surinamensis; 500 ppm PH3,100%
same,Percent (%) Mortality larvae,Orzaephilus surinamensis; 500 ppm PH3,100%
same,Percent (%) Mortality pupae,Orzaephilus surinamensis; 500 ppm PH3,100%
same,Percent (%) Mortality adults,Orzaephilus surinamensis; 1000 ppm PH3,100%
same,Percent (%) Mortality eggs,Orzaephilus surinamensis; 1000 ppm PH3,100%
same,Percent (%) Mortality larvae,Orzaephilus surinamensis; 1000 ppm PH3,100%
same,Percent (%) Mortality pupae,Orzaephilus surinamensis; 1000 ppm PH3,100%
same,cargo condition on arrival (residues and live pests),"live pests; Experiment 1: 2,600 g PH3 in 2,700 metric tons corn kernels, without turbine",free of residues and live pests
same,cargo condition on arrival (residues and live pests),"live pests; Experiment 2: 2,200 g PH3 in 2,700 metric tons corn kernels, with a turbine",free of residues and live pests
same,cargo condition on arrival (residues and live pests),"live pests; Experiment 3: 1,700 g PH3 in 2,700 metric tons corn kernels, without auxiliary turbine",free of residues and live pests
same,cargo condition on arrival (residues and live pests),live pests; Experiment 4: nine additional barges fumigated as in Experiment 3,free of residues and live pests
same,Percent (%) Mortality adults,Plodia interpunctella; 250 ppm PH3,100%
same,Percent (%) Mortality eggs,Plodia interpunctella; 250 ppm PH3,89-96%
same,Percent (%) Mortality larvae,Plodia interpunctella; 250 ppm PH3,95-100%
same,Percent (%) Mortality pupae,Plodia interpunctella; 250 ppm PH3,100%
same,Percent (%) Mortality adults,Plodia interpunctella; 500 ppm PH3,100%
same,Percent (%) Mortality eggs,Plodia interpunctella; 500 ppm PH3,90-100%
same,Percent (%) Mortality larvae,Plodia interpunctella; 500 ppm PH3,97-99%
same,Percent (%) Mortality pupae,Plodia interpunctella; 500 ppm PH3,100%
same,Percent (%) Mortality adults,Plodia interpunctella; 1000 ppm PH3,100%
same,Percent (%) Mortality eggs,Plodia interpunctella; 1000 ppm PH3,95-100%
same,Percent (%) Mortality larvae,Plodia interpunctella; 1000 ppm PH3,100%
same,Percent (%) Mortality pupae,Plodia interpunctella; 1000 ppm PH3,100%
same,Percent (%) Mortality adults,Amyelois transitella; 250 ppm PH3,100%
same,Percent (%) Mortality eggs,Amyelois transitella; 250 ppm PH3,0-78%
same,Percent (%) Mortality larvae,Amyelois transitella; 250 ppm PH3,100%
same,Percent (%) Mortality pupae,Amyelois transitella; 250 ppm PH3,100%
same,Percent (%) Mortality adults,Amyelois transitella; 500 ppm PH3,100%
same,Percent (%) Mortality eggs,Amyelois transitella; 500 ppm PH3,20-80%
same,Percent (%) Mortality larvae,Amyelois transitella; 500 ppm PH3,100%
same,Percent (%) Mortality pupae,Amyelois transitella; 500 ppm PH3,100%
same,Percent (%) Mortality adults,Amyelois transitella; 1000 ppm PH3,100%
same,Percent (%) Mortality eggs,Amyelois transitella; 1000 ppm PH3,70-100%
same,Percent (%) Mortality larvae,Amyelois transitella; 1000 ppm PH3,100%
same,Percent (%) Mortality pupae,Amyelois transitella; 1000 ppm PH3,100%
